# Source: article PMC4564171 (PLoS ONE, 2015)
# Assays:
# [1] = test system: 60 bp pvirB FID DNA probe; experiment: Fluorescence intercalator displacement (FID) assay, 60 bp probe; assay type: binding, Shigella flexneri; details: for 60 bp pvirB FID probe %fluorescence: ethidium bromide 45 μM, probe 1.5 μM
# Experimental: The FID protocol was based on previously published studies and was conducted in triplicate. For the assay, black, half-area, 96-well plates (Corning, Twerksbury, MA) were used. First, 70 μL of ethidium bromide in Tris Buffer (0.1 M Tris HCl, 0.1 M NaCl, pH 8.0) was added to all wells. The concentration of ethidium bromide was contingent upon the length of the DNA probe that was used. For the 60 bp pvirB FID DNA probe, the final ethidium bromide concentration used was 45 μM; whereas, for the 10 bp pvirB (51–60) FID DNA probe, the final ethidium bromide concentration used was 7.5 μM. Next, 10 μL of either pvirB FID DNA probes (10 or 60 bp) in TE/NaCl buffer (see above) or 10 μL of TE/NaCl buffer (background fluorescence control) were added to the appropriate wells of the plate. The final concentrations of the pvirB FID DNA probes were 1.5 μM. Lastly, 20 μL of test compound (either 19615 or Berenil) in 10% DMSO Tris Buffer or 20 μL of 10% DMSO Tris Buffer (100% fluorescence control) were added to the appropriate wells of the plate. The final concentrations of each test compound ranged from 12.5 μM to 100 μM. After the addition of all reagents, the plates were protected from light and allowed to equilibrate for 30 min on an orbital shaker at room temperature. Following equilibration, fluorescence was measured […] using a Biotek Synergy H1 plate reader (Winooski, VT). The average background fluorescence was subtracted from all data generated and %fluorescence was calculated for all wells containing compound via the following formula: %fluorescence=Ftest/F100%^*100 where: Ftest = the average fluorescence value obtained for each test compound and F100% = the average fluorescence value obtained for each 100% fluorescence control.
# [2] = target: T1, MalE-VirF binding to the pvirB DNA probe (Shigella flexneri, UniProt P0A2T1); experiment: Fluorescence polarization (FP) assay, inhibition of MalE-VirF binding to the pvirB DNA probe
# T1 construct: pMALvirF was constructed by cloning the virF gene into the vector, pMAL-c2x; made in house; host or cells: Shigella flexneri BS103 (pBAD202-MALvirF); initial preparations in E. coli KS1000 (pMALvirF)
# T1 sequence (P0A2T1 whole entry, looked up): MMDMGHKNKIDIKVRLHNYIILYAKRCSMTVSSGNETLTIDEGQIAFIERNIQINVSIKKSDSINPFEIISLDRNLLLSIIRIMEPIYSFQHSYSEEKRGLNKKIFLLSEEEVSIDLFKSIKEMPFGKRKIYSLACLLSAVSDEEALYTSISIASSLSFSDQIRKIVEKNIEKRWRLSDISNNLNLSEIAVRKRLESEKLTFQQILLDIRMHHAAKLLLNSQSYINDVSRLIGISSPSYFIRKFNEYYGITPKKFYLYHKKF
# Experimental: The FP assays were conducted in duplicate in black, half-area, 96-well plates (Corning, Twerksbury, MA). First, 30 μL of 5’-Fluoroscein-pvirB DNA probe working standard was added to appropriate wells of the microplate. The pvirB DNA working standard was in TE/NaCl buffer (see above) supplemented with BSA (0.07 mg/mL) and salmon sperm DNA (0.7 mg/mL). Next, 30 μL of varying concentrations of MalE-VirF in amylose resin elution buffer (see above) was added to appropriate wells of the microplate. The final concentration of pvirB DNA was either 50 nM (for test wells) or none (for blank wells) and the final concentrations of MalE-VirF ranged from 45 μM to 0.12 μM (for test wells) or none (for control wells). For each concentration of MalE-VirF tested, a blank well was also set up that included all reagents except pvirB DNA. The microplate was then incubated for 20 minutes at 37°C and anisotropy was determined using a SpectraMax M5 plate reader (Molecular Devices, Sunnyvale, CA). Data was acquired using an excitation wavelength equal to 490 nm and an emission wavelength equal to 520 nm. To determine anisotropy the following equation was used: Anisotropy=F∥-G^*F⊥/F∥+2^*G^*F⊥^*1000 where: Fǁ = fluorescence intensity parallel to excitation source after blanking, F┴ = fluorescence intensity perpendicular to excitation source after blanking, and G = G-factor (correction for polarization bias of the detection system). After anisotropy was determined, data were plotted using GraphPad Prism (La Jolla, Ca) and fit to the following equation: […] where Y = specific binding, KD = dissociation constant, BMAX = maximum binding, X = MalE-VirF concentration, and b = y-intercept.
# The FP protocol listed above was adapted to determine the IC50 of the small molecule hit compounds. Compounds (ranging from 200 μM to 3.1 μM) or DMSO for controls (1% final concentration) were added to the pvirB DNA probe working standard prior to addition to the microplates. For IC50 determination, the MalE-VirF and pvirB DNA probe concentrations were held constant at 20 μM and 50 nM, respectively. Positive controls were established to determine 100% VirF inhibition (no MalE-VirF present, 50 nM pvirB DNA probe) and negative controls were set up to determine no VirF inhibition (1% DMSO, 20 μM MalE-VirF, and 50 nM pvirB DNA probe). Once again blanks were set up to include all reagents, except pvirB DNA probe. All reactions were run in duplicate. Anisotropy was calculated as listed above and data were plotted using GraphPad Prism then fit to the following equation: Y=Bottom+(Top-Bottom)/(1+10^(X-logIC50)) where: Y = anisotropy, X = log of compound concentration (M), Top and Bottom = plateaus in anisotropy units, and LogIC50 = log of the concentration that inhibits 50% of VirF binding. In the presence of the compounds (no VirF), a small increase (~6%) in the DNA anisotropy was observed.
# The FP protocol used for IC50 determination was adapted to test a library of small molecule inhibitors of VirF. All steps were identical to the above protocol except compounds were tested at only 100 μM final concentration and positive control samples included 100 μM of compound. Once again blanks were set up to include all reagents, except pvirB DNA probe, and all reactions were run in duplicate. Anisotropy was calculated as listed above, and %inhibition was calculated as follows: %inhibition=rneg-rtest/rneg^*100 where: rneg = average anisotropy for negative controls and rtest = average anisotropy in presence of compound. Note: All rneg and rtest values were normalized to positive control values.
# [3] = test system: VirF-driven transcriptional activation; parameters: method as in PMID 24549153; details: VirF-driven β-galactosidase reporter; read-out: Shigella-Based Reporter Assay IC50; cited from earlier work
structure (smiles),measurement,setting,value
CN(C)CCOc1nc(-c2ccccc2)nc2c1oc1ccccc12 [compound 19615],Displacement of ethidium bromide from the pvirB DNA probes (FID),"[1]; 12.5 to 100 μM, both 60 bp and 10 bp probes",not able to displace ethidium bromide
same,60 bp pvirB FID probe %fluorescence,[1]; compound 12.5 μM,93% ± 3%
same,60 bp pvirB FID probe %fluorescence,[1]; compound 25 μM,97% ± 2%
same,60 bp pvirB FID probe %fluorescence,[1]; compound 50 μM,95% ± 2%
same,60 bp pvirB FID probe %fluorescence,[1]; compound 100 μM,93% ± 3%
same,IC50,[2],46 ± 2.2 µM
same,Ki,[2],5.6 µM
same,inhibition at 100 µM,[2]; read-out: % Inhibition at 100 μM,63%
same,IC50,[3],14 µM
